Assay results taken from ChEMBL document CHEMBL1201862, “PubChem BioAssay data set” (2004).
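The compound was tested at five concentrations on cells cultured in 96-well plates, with a 48-hour exposure period. GI50 = concentration required for 50% inhibition of growth.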 The source made the active and inactive calls. No stated cut-off is given here; in the data, active = GI50 up to about 1.1 µM and inactive = higher.

What was measured:
Test in all cases: NCI-60 cell line screen, 48 h
[1] = test system: SNB-75
[2] = test system: NCI/ADR-RES
[3] = test system: Hs-578T
[4] = test system: UO-31
[5] = test system: SW-620
[6] = test system: CCRF-CEM
[7] = test system: TK-10
[8] = test system: M14
[9] = test system: DU-145
[10] = test system: OVCAR-3
[11] = test system: U-251
[12] = test system: NCI-H226
[13] = test system: OVCAR-4
[14] = test system: A498
[15] = test system: MCF7
[16] = test system: SF-539
[17] = test system: LOX IMVI
[18] = test system: 786-0
[19] = test system: OVCAR-8
[20] = test system: HOP-62
[21] = test system: K562
[22] = test system: NCI-H522
[23] = test system: HCC 2998
[24] = test system: EKVX
[25] = test system: UACC-62
[26] = test system: SK-MEL-2
[27] = test system: CAKI-1
[28] = test system: COLO 205
[29] = test system: PC-3
[30] = test system: RPMI-8226
[31] = test system: MOLT-4
[32] = test system: SF-268
[33] = test system: UACC-257
[34] = test system: A549
[35] = test system: NCI-H460
[36] = test system: HCT-116
[37] = test system: HOP-92
[38] = test system: IGROV-1
[39] = test system: MDA-MB-231
[40] = test system: OVCAR-5
[41] = test system: Malme-3M
[42] = test system: SK-OV-3
[43] = test system: KM12
[44] = test system: HCT-15
[45] = test system: HL-60
[46] = test system: ACHN
[47] = test system: T47D
[48] = test system: BT-549
[49] = test system: SF-295
[50] = test system: MDA-MB-435
[51] = test system: SN12C
[52] = test system: SNB-19
[53] = test system: NCI-H23
[54] = test system: SK-MEL-28
[55] = test system: RXF 393
[56] = test system: HT-29
[57] = test system: MDA-N
[58] = test system: SK-MEL-5
[59] = test system: SR

Measured: GI50

CN(C)CC(O)c1ccc(Cl)c2ccccc12 (centres undefined)
> 90.2 µM: [44]
inactive: [1] 17.4 µM | [2] 81.5 µM | [3] 38.2 µM | [4] 19.9 µM | [5] > 83.9 µM | [6] 20 µM | [7] 34.3 µM | [8] 16.7 µM | [9] > 96.8 µM | [10] > 91 µM | [11] 37.1 µM | [12] > 27.3 µM | [13] 63.4 µM | [14] 22.4 µM | [15] 32.7 µM | [16] 50.1 µM | [17] 22.3 µM | [18] 48.3 µM | [19] > 90.4 µM | [20] 50.8 µM | [21] 1.15 µM | [22] 33.2 µM | [23] 15.8 µM | [24] > 100 µM | [25] 17.5 µM | [26] 19.3 µM | [27] 25.6 µM | [28] 20.6 µM | [29] 36.9 µM | [30] 3.08 µM | [31] 23.2 µM | [32] 55.6 µM | [33] 20.9 µM | [34] > 77.6 µM | [35] 31.2 µM | [36] 50 µM | [37] 14.2 µM | [38] 39.5 µM | [39] 27.5 µM | [40] > 100 µM | [41] 32.3 µM | [42] 74 µM | [43] 50.4 µM | [45] 9.12 µM | [46] 45 µM | [47] 21 µM | [48] 57.1 µM | [49] 24.3 µM | [50] 21.6 µM | [51] 43.3 µM | [52] > 70 µM | [53] > 87.1 µM | [54] 19.6 µM | [55] 22.1 µM | [56] 50 µM | [57] 24.8 µM | [58] 16.6 µM

O=C(C#Cc1ccccc1)N1CCCCC1
49.9 µM: [44]
inactive: [1] > 100 µM | [3] > 100 µM | [5] 97.9 µM | [6] 50.8 µM | [7] > 100 µM | [8] 84.1 µM | [9] 55.8 µM | [10] 81.7 µM | [11] 84.1 µM | [12] > 100 µM | [13] 80 µM | [14] > 100 µM | [59] 80.4 µM | [15] 44.4 µM | [16] > 100 µM | [17] 48.9 µM | [18] 14.4 µM | [19] 48.6 µM | [20] > 100 µM | [21] 73.6 µM | [22] > 100 µM | [23] 84.7 µM | [24] 63.2 µM | [25] > 100 µM | [26] > 100 µM | [27] 83.9 µM | [28] > 100 µM | [29] 77.4 µM | [30] 62.5 µM | [31] > 100 µM | [32] 90.2 µM | [33] > 100 µM | [34] 76.9 µM | [35] 44.6 µM | [36] 16.8 µM | [37] > 100 µM | [38] 65 µM | [39] 72.3 µM | [40] > 100 µM | [41] 40 µM | [42] > 100 µM | [43] > 100 µM | [45] 21.9 µM | [46] 58.1 µM | [47] 52.6 µM | [48] > 100 µM | [49] > 100 µM | [50] 63.5 µM | [51] > 100 µM | [52] > 100 µM | [53] 45.3 µM | [54] > 100 µM | [56] 29 µM | [57] 86.5 µM | [58] 56.4 µM
